From EPA's CvTdb concentration-time database

What was measured:
Rat [1] = experiment: concentration in brain after dosing; conditions: 24 h; dosed: Perfluorooctanoic acid; 12 mg/kg; oral; Male; Harlan Sprague Dawley
Rat [2] = experiment: concentration in brain after dosing; conditions: 3 h; dosed: Perfluorooctanoic acid; 12 mg/kg; oral; Male; Harlan Sprague Dawley
Rat [3] = experiment: concentration in liver after dosing; conditions: 12 h; dosed: Perfluorooctanoic acid; 80 mg/kg; oral; Female; Harlan Sprague Dawley
Rat [4] = experiment: concentration in kidney after dosing; conditions: 6 h; dosed: Perfluorooctanoic acid; 12 mg/kg; oral; Male; Harlan Sprague Dawley
Rat [5] = experiment: concentration in plasma after dosing; conditions: dosed: 678-39-7, 40 mg/kg, iv, Male, F344
Rat [6] = experiment: concentration in kidney after dosing; conditions: 3 h; dosed: Fluorotelomer alcohol 8+2; 24 mg/kg; oral; Male; Harlan Sprague Dawley
Rat [7] = experiment: concentration in plasma after dosing; conditions: dosed: 678-39-7, 12 mg/kg, iv, Male, F344
Rat [8] = experiment: concentration in kidney after dosing; conditions: 12 h; dosed: Perfluorooctanoic acid; 12 mg/kg; oral; Male; Harlan Sprague Dawley
Rat [9] = experiment: concentration in plasma after dosing; conditions: dosed: 2-Hydroxy-4-methoxybenzophenone, 500 mg/kg, oral, Male, F344
Mouse [10] = experiment: concentration in plasma after dosing; conditions: 10 min; dosed: 2-Hydroxy-4-methoxybenzophenone; 500 mg/kg; oral; Male; B6C3F1
Mouse [11] = experiment: concentration in plasma after dosing; conditions: dosed: 2-Hydroxy-4-methoxybenzophenone, B6C3F1
Mouse [12] = experiment: concentration in plasma after dosing; conditions: 3 h; dosed: 2-Hydroxy-4-methoxybenzophenone; 50 mg/kg; iv; Male; B6C3F1
Mouse [13] = experiment: concentration in plasma after dosing; conditions: 2 h; dosed: 2-Hydroxy-4-methoxybenzophenone; 500 mg/kg; oral; Male; B6C3F1
rat [14] = experiment: concentration in plasma after dosing; conditions: dosed: benzo[a]pyrene, 100 ug/m^3, inhalation, duration: 4 hr, F344

O=C(O)C(F)(F)C(F)(F)C(F)(F)C(F)(F)C(F)(F)C(F)(F)C(F)(F)F [Perfluorooctanoic acid]
Conditions | concentration in brain [ng/g] | concentration in kidney [ng/g] | concentration in liver [ng/g]
Rat [1] | 1210 | – | –
Rat [2] | 913 | – | –
Rat [3] | – | – | 59900
Rat [4] | – | 37600 | –
Rat [6] | – | 272 | –
Rat [8] | – | 27000 | –

concentration in plasma [ng/mL]
Conditions | 0.5 h | 0.75 h | 3 h | 5 min | 12 h
Rat [5] | 234000 | – | 2800 | 172 | 25600
Rat [7] | – | 332 | – | – | 524

COc1ccc(C(=O)c2ccccc2)c(O)c1 [2-Hydroxy-4-methoxybenzophenone]
Rat [9]
Conditions | concentration in plasma [ng/mL]
2.5 min | 6.4
4 h | 578

Conditions | concentration in plasma [ng/mL]
Mouse [10] | 102
Mouse [12] | 175
Mouse [13] | 95.6

concentration in plasma [ng/mL], Mouse [11]
Conditions | 0.25 h | 2 h | 2.5 min | 3 h | 10 min
50 mg/kg, iv, Female | 4570 | 259 | – | 193 | 9660
50 mg/kg, iv, Male | 5620 | 279 | – | 235 | 11500
100 mg/kg, oral, Female | 103 | 20.1 | 6.58 | 11.8 | 57.3
100 mg/kg, oral, Male | 62.2 | 36.5 | 13.4 | 19.3 | 41.5
250 mg/kg, oral, Female | 260 | 45.8 | 22 | 264 | 165
250 mg/kg, oral, Male | 519 | 54.8 | 15.7 | 41.9 | 69.5
500 mg/kg, oral, Female | 2950 | 11500 | – | – | 526
500 mg/kg, oral, Male | 238 | 73.1 | – | – | 176

c1ccc2c(c1)cc1ccc3cccc4ccc2c1c34 [benzo[a]pyrene]
concentration in plasma [ng/mL], rat [14]
Conditions | 0.05 h | 1 h | 2 h | 4 h
female | 10 | 23 | 11 | 1.07
male | 14.9 | 18 | 12 | 2
